Measured values from US20140328847A1, “MITIGATION OF DISEASE BY INHIBITION OF GALECTIN-12” (The Regents of the University of California, priority 2011, published 2014).

Legend:
[1] = test system: adipocytes from Lgals12^+/+ and Lgals12^−/− mice; test: Lipolysis assay in primary adipocytes from Lgals12+/+ and Lgals12−/− mice (glycerol release); assay type: cell-based, mouse; conditions: for cAMP/dbcAMP-stimulated lipolysis: in the presence of adenylyl cyclase inhibitor SQ 22536, FIG. 9G; for lipolysis (glycerol release): 1 h, 37° C.
Method: (A) Adipocytes from the epididymal fat depots of Lgals12^+/+ and Lgals12^-/- mice were incubated with indicated concentrations of isoproterenol before being separated into cytosol and fat cake. Lipolytic proteins in each fraction were analyzed by Western blotting with indicated antibodies. (B) Quantification of lipid droplet (LD)-associated p-HSL and HSL by densitometry of Western blots (n=3 for each genotype). […] (D) Quantification of LD-associated ATGL by densitometry of Western blots (n=3 for each genotype). […] Asterisks denote statistical significance (p<0.05). Results are representative of three experiments. FIGS. 10A-C illustrate (A) Adipocytes from Lgals12^+/+ and -/- mice (n=3) were incubated with 1 U/ml ADA and increasing concentrations of PIA for 1 h at 37° C. and glycerol release was measured. Results were expressed as both absolute values and as % of glycerol release in the absence of PIA. (B) Adipocytes from Lgals12+/+ and Lgals12^-/- mice (n=3 each) were incubated with or without 10 μM cilostamide (Cilo) or 25 μM rolipram (Roli), individually or in combination, for 2 h at 37° C. Lipolysis was determined by measuring glycerol release. (C) Insulin suppression of lipolysis in adipocytes stimulated with 20 nM isoproterenol (% of maximal release in the absence of insulin). Asterisks denote statistical significance (p<0.05). Similar results were obtained in three experiments. Adipocytes were isolated from gonadal fat depots in Krebs-Ringer HEPES (KRH) buffer by collagenase digestion and floatation ([…] Lipid Res 47:1859-1864). After the final wash, cell density and triglyceride content of the adipocyte suspension were determined as described (Fine […] (1997) Int J Obes Relat Metab Disord 21:764-768.). We monitored lipolysis in adipocytes isolated from random-fed Lgals12^+/+ and Lgals12^-/- mice on regular diet, by measuring fatty acid and glycerol release, as described ([…] Lipid Res 47:1859-1864), with minor modifications. Briefly, 2.5×10^5 cells were incubated in 0.3 ml KRH/3% FAA-free BSA (for basal lipolysis), or KRH/3% FAA-free BSA containing indicated concentrations of lipolysis stimulators or inhibitors (Sigma) for 0-2 h at 37° C. with shaking at 150 rpm. At the end of the incubation, glycerol and NEFA released into the infranatant was determined with the Free Glycerol Reagent (Sigma) and the Nonesterified Fatty Acids Kit ([…]), respectively.

galectin-12 [2] = target: T1, galectin-12 (Mus musculus, UniProt Q91VD1); test: Association of galectin-12 with lipid droplets purified from mouse adipocyte homogenates; conditions: lactose 25 mM present during lipid droplet purification; FIG. 5B
T1 construct: from tissue; host or cells: primary mouse adipocytes from epididymal fat depot
T1 sequence (Q91VD1 1-314): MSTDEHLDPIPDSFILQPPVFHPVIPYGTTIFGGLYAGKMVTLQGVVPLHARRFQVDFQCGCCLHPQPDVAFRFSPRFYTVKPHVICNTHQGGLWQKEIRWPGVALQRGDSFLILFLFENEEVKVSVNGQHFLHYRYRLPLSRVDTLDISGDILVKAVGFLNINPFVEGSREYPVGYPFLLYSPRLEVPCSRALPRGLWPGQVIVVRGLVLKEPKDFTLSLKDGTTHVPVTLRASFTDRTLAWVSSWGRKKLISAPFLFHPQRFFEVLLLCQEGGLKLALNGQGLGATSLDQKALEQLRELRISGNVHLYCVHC
Method: (§1) FIGS. 5A-B illustrate association of galectin-12 with lipid droplets is not inhibited by lactose. (A) Mouse adipocytes from epididymal fat depot were lyzed and the lysates were incubated with fetuin-agarose, in the absence (−) or presence (+) of 25 mM lactose. Bound proteins were eluted with SDS-sample buffer and galectin-12 was detected by Western blotting. (B) Lipd droplets were purified from mouse adipocyte homogenates in the absence (−) or presence (+) of 25 mM lactose. Galectin-12 was detected as in (A).
(§2) To test whether galectin-12 association with lipid droplets is glycan-dependent, we also purified lipid droplets in the presence of lactose.

galectin-12 [3] = target: T1, galectin-12; test: Binding of galectin-12 from mouse adipocyte lysates to fetuin-agarose (Western blotting); conditions: lactose 25 mM; mouse epididymal adipocyte lysates; FIG. 5A
Method: as §1, §2

## CCCC(=O)Nc1ncnc2c1ncn2[C@@H]1O[C@@H]2COP(=O)(O)O[C@H]2[C@H]1OC(=O)CCC [dbcAMP, dibutyryl cAMP]
[1]
  cAMP/dbcAMP-stimulated lipolysis: induced comparable lipolysis in adipocytes of the two genotypes

## Nc1ncnc2c1ncn2[C@@H]1O[C@@H]2COP(=O)(O)O[C@H]2[C@H]1O [cAMP, cyclic adenosine monophosphate]
[1]
  cAMP/dbcAMP-stimulated lipolysis: stimulated greater lipolysis in Lgals12^−/− adipocytes than in Lgals12^+/+ adipocytes

## CC(Cc1ccccc1)Nc1ncnc2c1ncn2[C@@H]1O[C@H](CO)[C@@H](O)[C@H]1O (single isomer, unassigned; (-)) [PIA, (−)-N6-(2-Phenylisopropyl)adenosine]
[1]; increasing concentrations of PIA with 1 U/ml ADA, FIG. 10A
  lipolysis (glycerol release): suppressed lipolysis in both genotypes with similar efficiencies

## insulin
[1]; Lgals12−/− adipocytes stimulated with 20 nM isoproterenol, FIG. 10C
  insulin suppression of lipolysis: remained sensitive

## CC(C)Cn1c(=O)n(C)c(=O)c2[nH]cnc21 [IBMX, 3-isobutyl-1-methylxanthine]
[1]; 0.1 mM IBMX, both Lgals12+/+ and Lgals12−/− adipocytes, FIG. 9F
  lipolysis (glycerol release): greatly enhanced

## OC[C@H]1O[C@@H](O[C@H]2[C@H](O)[C@@H](O)C(O)O[C@@H]2CO)[C@H](O)[C@@H](O)[C@H]1O (stereo partly shown) [Lactose]
galectin-12 [2]
  galectin-12 association with lipid droplets: did not affect
galectin-12 [3]
  binding of galectin-12 to fetuin-agarose: completely inhibited
